Literature values in PMC9389804 (Journal of Hematology & Oncology, 2022).

Set-up: method as in PMID 29567798
Details: median follow-up of 5 years; cited from earlier work

For `Cc1ccc(C(=O)Nc2ccc(CN3CCN(C)CC3)c(C(F)(F)F)c2)cc1C#Cc1cnc2cccnn12` [ponatinib], the “incidence of arterial occlusive and venous thrombotic events” value is given as 31.0%.
